Assay results from patent publication EP3033337B1, “SUBSTITUTED IMIDAZOLES AS N-TYPE CALCIUM CHANNEL BLOCKERS” (Janssen Pharmaceutica NV, priority 2013, dated 2015).

Legend:
human N-type Ca channel [1] = target: T1, human N-type Ca channel (Homo sapiens, UniProt Q00975); assay: Calcium influx assay (FDSS), KCl depolarization, Fluo8 dye; type: cell-based; design: host or cells: HEK 293; details: HEK 293 cells expressing human N-type Ca channel; 100 mM KCl; read-out: N Type IC50 Data FDSS
Procedure, shortened: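 HEK293 cells stably expressing the human N-type Ca channel were loaded with Fluo8 and washed in choline-based buffer (pH 7.2, 2 mM CaCl2, 2 mM KCl). Cells were preincubated with serially diluted compound for 15 min in the dark. Ca influx was then recorded by fluorescence after depolarization with 100 mM KCl.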

human N-type Ca channel [2] = target: T1, human N-type Ca channel; assay: Electrophysiological response, QPatch (depolarization -80 mV to +20 mV); details: for inhibition at 10 µM: read-out: Qpatch Pulse=1 (percent inhibition)
Description: The recombinant cell line described above was used in the measurement of electrophysiological properties with QPatch (Sophion). Cells were maintained in culture as mentioned above. Prior to the experiment, the flasks were moved to 30 °C and incubated for 48-72 hrs. On the day of assaying, cells were detached and harvested. The cell pellet was re-suspended in SMF4HEK (HyClone)/25mM HEPS at 2-5 million/ mL and placed on the QStirrer of the QPatch for 30-60 min prior to the start of the assay. […] Microtiter-Plate/Reference Buffer contained 140 mM TEA-Cl, 10mM BaCl2, 0.8 mM MgCl2, 10 mM HEPES pH ∼7.4 adjusted with TEA-OH/HCl, and ∼300mOsm. Cells were transferred to a QPatch 48 plate and gigaseal was formed. The plate was perfused with intracellular and extracellular buffer. […] In brief, cells were depolarized from resting potential of -80 mV to +20 mV and current was recorded. Data was plotted as percent inhibition vs concentration of the compound and IC50 values were generated using Graphpad Prism non-linear regression analysis.

[3] = N Type IC50 Data Qpatch Pulse=15, Pulse=15, concentration range 0.3-10 µM
[4] = Pulse=15, concentration range 0.01-0.3 µM
[5] = read-out: N Type IC50 Data Qpatch Pulse=15, Pulse=15, concentration range 0.01-1 µM
[6] = N Type IC50 Data Qpatch Pulse=1, Pulse=1, concentration range 0.01-1 µM
[7] = N Type IC50 Data Qpatch Pulse=15, Pulse=15, concentration range 0.01-1 µM
[8] = N Type IC50 Data Qpatch Pulse=1, Pulse=1, concentration range 0.01-0.3 µM
[9] = N Type IC50 Data Qpatch Pulse=1, Pulse=1, concentration range 0.3-10 µM
[10] = read-out: N Type IC50 Data Qpatch Pulse=1, Pulse=1, concentration range 0.01-1 µM

T1 sequence (Q00975 whole entry): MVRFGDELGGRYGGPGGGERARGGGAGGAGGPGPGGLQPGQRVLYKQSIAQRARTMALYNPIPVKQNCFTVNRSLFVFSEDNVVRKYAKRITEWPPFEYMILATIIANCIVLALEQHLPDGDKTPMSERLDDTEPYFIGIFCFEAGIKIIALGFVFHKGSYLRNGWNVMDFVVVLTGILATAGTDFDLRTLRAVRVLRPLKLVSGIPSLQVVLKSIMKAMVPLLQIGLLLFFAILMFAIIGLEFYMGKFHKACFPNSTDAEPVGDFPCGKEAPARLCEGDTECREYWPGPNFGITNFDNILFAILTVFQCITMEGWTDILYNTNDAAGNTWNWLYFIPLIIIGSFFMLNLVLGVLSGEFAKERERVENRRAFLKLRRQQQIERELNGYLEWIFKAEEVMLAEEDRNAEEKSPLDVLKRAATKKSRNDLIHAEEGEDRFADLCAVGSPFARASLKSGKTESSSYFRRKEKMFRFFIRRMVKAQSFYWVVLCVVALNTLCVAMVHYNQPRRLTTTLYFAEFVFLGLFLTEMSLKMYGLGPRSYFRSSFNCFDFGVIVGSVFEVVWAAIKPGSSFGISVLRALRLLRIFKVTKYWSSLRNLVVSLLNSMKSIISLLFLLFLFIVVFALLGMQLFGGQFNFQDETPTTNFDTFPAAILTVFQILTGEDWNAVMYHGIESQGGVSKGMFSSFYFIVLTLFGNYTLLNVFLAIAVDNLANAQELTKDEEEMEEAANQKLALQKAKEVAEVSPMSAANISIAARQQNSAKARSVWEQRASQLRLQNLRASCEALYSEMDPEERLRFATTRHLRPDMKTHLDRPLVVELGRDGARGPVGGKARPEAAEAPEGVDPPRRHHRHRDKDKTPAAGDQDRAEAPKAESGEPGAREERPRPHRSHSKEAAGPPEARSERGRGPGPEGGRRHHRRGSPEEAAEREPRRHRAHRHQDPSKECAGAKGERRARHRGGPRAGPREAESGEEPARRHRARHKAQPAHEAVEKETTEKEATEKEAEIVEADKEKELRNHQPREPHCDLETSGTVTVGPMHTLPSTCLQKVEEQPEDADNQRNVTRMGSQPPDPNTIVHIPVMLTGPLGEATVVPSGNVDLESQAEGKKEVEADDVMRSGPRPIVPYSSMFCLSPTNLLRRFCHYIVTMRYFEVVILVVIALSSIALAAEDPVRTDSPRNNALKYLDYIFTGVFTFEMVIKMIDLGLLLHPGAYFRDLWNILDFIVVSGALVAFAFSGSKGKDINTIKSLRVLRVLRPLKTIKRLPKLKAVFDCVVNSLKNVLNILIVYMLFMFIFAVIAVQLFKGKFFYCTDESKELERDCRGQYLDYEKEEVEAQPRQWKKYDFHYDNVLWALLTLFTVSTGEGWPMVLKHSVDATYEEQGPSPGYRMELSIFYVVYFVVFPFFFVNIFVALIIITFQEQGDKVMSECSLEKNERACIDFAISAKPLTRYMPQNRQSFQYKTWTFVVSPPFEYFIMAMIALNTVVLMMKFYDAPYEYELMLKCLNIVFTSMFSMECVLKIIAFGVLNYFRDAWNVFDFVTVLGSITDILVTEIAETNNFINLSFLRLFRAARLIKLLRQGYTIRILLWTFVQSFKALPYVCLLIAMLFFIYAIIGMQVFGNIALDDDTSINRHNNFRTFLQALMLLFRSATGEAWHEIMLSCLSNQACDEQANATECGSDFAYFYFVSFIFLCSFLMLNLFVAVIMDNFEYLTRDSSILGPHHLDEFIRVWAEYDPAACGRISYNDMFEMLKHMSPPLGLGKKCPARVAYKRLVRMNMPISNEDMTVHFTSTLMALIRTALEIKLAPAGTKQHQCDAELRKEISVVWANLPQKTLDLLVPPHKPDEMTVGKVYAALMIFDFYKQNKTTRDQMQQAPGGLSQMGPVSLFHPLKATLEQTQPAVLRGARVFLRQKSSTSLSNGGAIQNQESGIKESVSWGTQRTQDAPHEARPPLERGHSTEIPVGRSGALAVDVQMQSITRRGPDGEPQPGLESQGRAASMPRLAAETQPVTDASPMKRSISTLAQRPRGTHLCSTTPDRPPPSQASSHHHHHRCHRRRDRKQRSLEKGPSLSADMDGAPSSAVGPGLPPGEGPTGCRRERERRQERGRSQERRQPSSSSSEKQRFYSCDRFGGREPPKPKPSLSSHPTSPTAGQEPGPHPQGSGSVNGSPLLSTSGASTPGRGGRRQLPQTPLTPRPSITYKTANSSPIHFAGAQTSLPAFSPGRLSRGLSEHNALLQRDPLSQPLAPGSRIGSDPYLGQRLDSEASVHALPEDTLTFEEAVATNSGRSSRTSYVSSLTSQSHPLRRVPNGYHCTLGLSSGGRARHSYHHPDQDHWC
T1 sequence (P54284 whole entry partner): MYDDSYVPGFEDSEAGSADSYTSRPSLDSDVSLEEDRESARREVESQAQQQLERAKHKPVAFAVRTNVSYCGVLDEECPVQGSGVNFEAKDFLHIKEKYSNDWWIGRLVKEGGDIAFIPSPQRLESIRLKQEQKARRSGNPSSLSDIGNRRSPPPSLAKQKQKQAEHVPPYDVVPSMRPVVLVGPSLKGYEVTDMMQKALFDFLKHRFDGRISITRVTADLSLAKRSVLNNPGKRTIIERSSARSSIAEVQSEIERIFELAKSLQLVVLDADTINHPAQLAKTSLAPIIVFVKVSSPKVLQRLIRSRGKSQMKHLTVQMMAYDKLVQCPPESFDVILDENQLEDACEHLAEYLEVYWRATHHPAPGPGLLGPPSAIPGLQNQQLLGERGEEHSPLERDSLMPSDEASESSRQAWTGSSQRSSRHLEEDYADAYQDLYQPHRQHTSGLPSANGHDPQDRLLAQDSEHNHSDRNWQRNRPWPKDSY
T1 sequence (P54289 25-956 partner limits assumed): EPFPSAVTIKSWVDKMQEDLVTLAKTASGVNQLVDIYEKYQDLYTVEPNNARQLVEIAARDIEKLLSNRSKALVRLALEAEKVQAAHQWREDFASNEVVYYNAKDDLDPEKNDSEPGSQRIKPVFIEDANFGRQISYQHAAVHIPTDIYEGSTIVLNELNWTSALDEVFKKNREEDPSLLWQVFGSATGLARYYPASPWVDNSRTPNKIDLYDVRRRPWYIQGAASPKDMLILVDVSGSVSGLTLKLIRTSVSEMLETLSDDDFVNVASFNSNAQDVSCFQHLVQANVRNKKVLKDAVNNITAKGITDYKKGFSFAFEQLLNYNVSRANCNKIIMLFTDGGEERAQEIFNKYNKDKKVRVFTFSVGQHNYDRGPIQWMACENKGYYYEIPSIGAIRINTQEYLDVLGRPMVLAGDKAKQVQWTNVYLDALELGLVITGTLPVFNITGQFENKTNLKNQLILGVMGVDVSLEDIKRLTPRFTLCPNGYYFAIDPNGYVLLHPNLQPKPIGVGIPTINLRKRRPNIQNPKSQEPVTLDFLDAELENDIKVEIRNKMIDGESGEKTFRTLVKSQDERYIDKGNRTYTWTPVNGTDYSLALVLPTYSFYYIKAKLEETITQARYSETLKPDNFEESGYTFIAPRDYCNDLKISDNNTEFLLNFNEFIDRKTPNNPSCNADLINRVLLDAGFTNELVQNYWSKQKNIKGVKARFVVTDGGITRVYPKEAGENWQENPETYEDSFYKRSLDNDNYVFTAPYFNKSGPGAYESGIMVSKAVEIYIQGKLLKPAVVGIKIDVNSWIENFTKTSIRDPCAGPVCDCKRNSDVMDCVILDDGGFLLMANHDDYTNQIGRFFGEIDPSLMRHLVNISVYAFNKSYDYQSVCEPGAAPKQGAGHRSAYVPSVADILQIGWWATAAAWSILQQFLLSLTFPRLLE
T1 sequence (P54289 957-1103 partner limits assumed): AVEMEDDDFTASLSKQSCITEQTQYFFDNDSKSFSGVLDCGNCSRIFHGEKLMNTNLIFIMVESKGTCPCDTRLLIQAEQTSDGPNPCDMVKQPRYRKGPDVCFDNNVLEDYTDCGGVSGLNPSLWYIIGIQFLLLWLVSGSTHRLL

Row | SMILES | IC50 (human N-type Ca channel [1]) [nM] | IC50 (human N-type Ca channel [2]; [3]) [nM] | IC50 (human N-type Ca channel [2]; [5]) [nM] | IC50 (human N-type Ca channel [2]; [6]) [nM] | further results
1 | COc1ncccc1-c1nc(C2CC(C)(C)OC(C)(C)C2)cn1-c1ccc(C#N)c(Cl)c1 [Compound 78, 2-chloro-4-(2-(2-methoxypyridin-3-yl)-4-(2,2,6,6-tetramethyltetrahydro-2H-pyran-4-yl)-1H-imidazol-1-yl)benzonitrile] | 234 | – | > 1000 | – | –
2 | COc1ncccc1-c1nc(C2CC(C)(C)OC(C)(C)C2)cn1-c1ccc(C#N)cc1 [Compound 43, 4-(2-(2-methoxypyridin-3-yl)-4-(2,2,6,6-tetramethyltetrahydro-2H-pyran-4-yl)-1H-imidazol-1-yl)benzonitrile] | 291 | 7500 | – | – | inhibition at 10 µM (human N-type Ca channel [2]): 34%
3 | COc1ncccc1-c1nc(C2CC(C)(C)OC(C)(C)C2)c(Cl)n1-c1ccc(F)cc1 [Compound 92, 3-(5-chloro-1-(4-fluorophenyl)-4-(2,2,6,6-tetramethyltetrahydro-2H-pyran-4-yl)-1H-imidazol-2-yl)-2-methoxypyridine] | 41 | – | – | 253 | IC50 (human N-type Ca channel [2]; [7]): 269 nM
4 | COc1ccccc1-c1nc(C2CC(C)(C)OC(C)(C)C2)cn1-c1cccc(C#N)c1 [Compound 32, 3-(2-(2-methoxyphenyl)-4-(2,2,6,6-tetramethyltetrahydro-2H-pyran-4-yl)-1H-imidazol-1-yl)benzonitrile] | 278 | – | > 1000 | > 1000 | –
5 | COc1nccnc1-c1nc(C2CC(C)(C)OC(C)(C)C2)cn1-c1ccc(F)cc1 [Compound 47, 2-(1-(4-fluorophenyl)-4-(2,2,6,6-tetramethyltetrahydro-2H-pyran-4-yl)-1H-imidazol-2-yl)-3-methoxypyrazine] | 1540 | – | > 1000 | > 1000 | –
6 | COc1ccccc1-c1nc(C2CC(C)(C)OC(C)(C)C2)cn1-c1ccc(C#N)cc1F [Compound 36, 3-fluoro-4-(2-(2-methoxyphenyl)-4-(2,2,6,6-tetramethyltetrahydro-2H-pyran-4-yl)-1H-imidazol-1-yl)benzonitrile] | 40 | – | > 1000 | 376 | –
7 | CCOc1nccnc1-c1nc(C2CC(C)(C)OC(C)(C)C2)cn1-c1ccc(Cl)cc1 [Compound 60, 2-(1-(4-chlorophenyl)-4-(2,2,6,6-tetramethyltetrahydro-2H-pyran-4-yl)-1H-imidazol-2-yl)-3-ethoxypyrazine] | 321 | – | – | – | IC50 (human N-type Ca channel [2]; [8]): 247 nM; N Type IC50 Data Qpatch Pulse=15 (human N-type Ca channel [2]; [4]): poor fit(0.01-0.3 µM)
8 | COc1nccnc1-c1nc(C2CC(C)(C)OC(C)(C)C2)cn1-c1ccc(C#N)c(F)c1 [Compound 88, 2-fluoro-4-(2-(3-methoxypyrazin-2-yl)-4-(2,2,6,6-tetramethyltetrahydro-2H-pyran-4-yl)-1H-imidazol-1-yl)benzonitrile] | 2170 | – | – | – | IC50 (human N-type Ca channel [2]; [8]): 349 nM; N Type IC50 Data Qpatch Pulse=15 (human N-type Ca channel [2]; [4]): poor fit(0.01-0.3 µM)
9 | COc1ccccc1-c1nc(C2CC(C)(C)OC(C)(C)C2)cn1-c1ccc(C#N)c(Cl)c1 [Compound 123, 2-chloro-4-(2-(2-methoxyphenyl)-4-(2,2,6,6-tetramethyltetrahydro-2H-pyran-4-yl)-1H-imidazol-1-yl)benzonitrile] | 129 | – | – | 468 | IC50 (human N-type Ca channel [2]; [7]): > 1000 nM
10 | COc1ccccc1-c1nc(C2CC(C)(C)OC(C)(C)C2)cn1-c1ccc(C#N)c(C)c1 [Compound 21, 4-(2-(2-methoxyphenyl)-4-(2,2,6,6-tetramethyltetrahydro-2H-pyran-4-yl)-1H-imidazol-1-yl)-2-methylbenzonitrile] | 119 | – | – | 639 | –
11 | COc1ccccc1-c1nc(C2CC(C)(C)OC(C)(C)C2)cn1-c1ccc(Cl)c(F)c1 [Compound 41, 1-(4-chloro-3-fluorophenyl)-2-(2-methoxyphenyl)-4-(2,2,6,6-tetramethyltetrahydro-2H-pyran-4-yl)-1H-imidazole] | 131 | 602 | – | – | inhibition at 10 µM (human N-type Ca channel [2]): 71%
12 | COc1cnccc1-c1nc(C2CC(C)(C)OC(C)(C)C2)cn1-c1ccc(F)cc1 [Compound 2, 4-(1-(4-fluorophenyl)-4-(2,2,6,6 tetramethyltetrahydro-2H-pyran-4-yl)-1H-imidazol-2-yl)-3-methoxypyridine] | 128 | 6200 | – | – | –
13 | CC1(C)CC(c2cn(-c3ccc(Cl)cc3)c(-c3ccc[nH]c3=O)n2)CC(C)(C)O1 [Compound 122, 3-(1-(4-chlorophenyl)-4-(2,2,6,6-tetramethyltetrahydro-2H-pyran-4-yl)-1H-imidazol-2-yl)pyridin-2(1H)-one] | 3010 | – | > 1000 | – | IC50 (human N-type Ca channel [2]; [10]): > 1000 nM
14 | COc1ccc(-n2cc(C3CC(C)(C)OC(C)(C)C3)nc2-c2ccccc2OC)cc1C#N [Compound 37, 2-methoxy-5-(2-(2-methoxyphenyl)-4-(2,2,6,6-tetramethyltetrahydro-2H-pyran-4-yl)-1H-imidazol-1-yl)benzonitrile] | 424 | – | > 1000 | – | IC50 (human N-type Ca channel [2]; [10]): > 1000 nM
15 | COc1ncccc1-c1nc(C2CC(C)(C)OC(C)(C)C2)cn1-c1cc(F)cc(F)c1 [Compound 72, 3-(1-(3,5-difluorophenyl)-4-(2,2,6,6-tetramethyltetrahydro-2H-pyran-4-yl)-1H-imidazol-2-yl)-2-methoxypyridine] | 2400 | – | – | – | N Type IC50 Data Qpatch Pulse=1 (human N-type Ca channel [2]; Pulse=1, concentration range 0.01-1 µM): poor fit(0.01- 1 µM); N Type IC50 Data Qpatch Pulse=15 (human N-type Ca channel [2]; Pulse=15, concentration range 0.01-1 µM): poor fit(0.01- 1 µM)

Second part, led by results:

Row | IC50 (human N-type Ca channel [1]) [nM] | IC50 (human N-type Ca channel [2]; [3]) [nM] | IC50 (human N-type Ca channel [2]; [5]) [nM] | IC50 (human N-type Ca channel [2]; [6]) [nM] | SMILES | further results
16 | 49 | 1300 | – | – | COc1cnccc1-c1nc(C2CC(C)(C)OC(C)(C)C2)cn1-c1ccc(Cl)cc1 [Compound 66, 4-(1-(4-chlorophenyl)-4-(2,2,6,6-tetramethyltetrahydro-2H-pyran-4-yl)-1H-imidazol-2-yl)-3-methoxypyridine] | –
17 | 4400 | – | – | – | CC1(C)CC(c2cn(-c3ccc(C(F)(F)F)nc3)c(CC3CC3)n2)CC(C)(C)O1 [Compound 59, 5-(2-(cyclopropylmethyl)-4-(2,2,6,6-tetramethyltetrahydro-2H-pyran-4-yl)-1H-imidazol-1-yl)-2-(trifluoromethyl)pyridine] | N Type IC50 Data Qpatch Pulse=1 (human N-type Ca channel [2]; Pulse=1, concentration range 0.01-0.3 µM): poor fit(0.01-0.3 µM); N Type IC50 Data Qpatch Pulse=15 (human N-type Ca channel [2]; [4]): poor fit(0.01-0.3 µM)
18 | 205 | – | – | – | CCOc1ncccc1-c1nc(C2CC(C)(C)OC(C)(C)C2)cn1-c1ccc(C#N)c(F)c1 [Compound 89, 4-(2-(2-ethoxypyridin-3-yl)-4-(2,2,6,6-tetramethyltetrahydro-2H-pyran-4-yl)-1H-imidazol-1-yl)-2-fluorobenzonitrile] | IC50 (human N-type Ca channel [2]; [8]): 517 nM; N Type IC50 Data Qpatch Pulse=15 (human N-type Ca channel [2]; [4]): poor fit(0.01-0.3 µM)
19 | 103 | 1600 | – | – | COc1ccccc1-c1nc(C2=CC(C)(C)OC(C)(C)C2)cn1-c1ccc(Cl)cc1 [Compound 124, 1-(4-chlorophenyl)-2-(2-methoxyphenyl)-4-(2,2,6,6-tetramethyl-3,6-dihydro-2H-pyran-4-yl)-1H-imidazole] | IC50 (human N-type Ca channel [2]; [9]): 2500 nM
20 | 430 | 2420 | – | – | COc1ccccc1-c1nc(C2(O)CC(C)(C)OC(C)(C)C2)cn1-c1ccc(F)c(F)c1 [Compound 107, 4-(1-(3,4-difluorophenyl)-2-(2-methoxyphenyl)-1H-imidazol-4-yl)-2,2,6,6-tetramethyltetrahydro-2H-pyran-4-ol] | IC50 (human N-type Ca channel [2]; [9]): 3530 nM
21 | 300 | 3820 | > 1000 | 964 | COc1ncccc1-c1nc(C2(O)CC(C)(C)OC(C)(C)C2)cn1-c1ccc(Cl)cc1 [Compound 105, 4-(1-(4-chlorophenyl)-2-(2-methoxypyridin-3-yl)-1H-imidazol-4-yl)-2,2,6,6-tetramethyltetrahydro-2H-pyran-4-ol] | IC50 (human N-type Ca channel [2]; [9]): 8300 nM
22 | 10000 | – | > 1000 | – | CC1(C)CC(c2cn(-c3ccc(C#N)cc3)c(C3CC3)n2)CC(C)(C)O1 [Compound 57, 4-(2-cyclopropyl-4-(2,2,6,6-tetramethyltetrahydro-2H-pyran-4-yl)-1H-imidazol-1-yl)benzonitrile] | IC50 (human N-type Ca channel [2]; [10]): > 1000 nM
23 | 607 | – | – | 668 | CCOc1ncccc1-c1nc(C2(O)CC(C)(C)OC(C)(C)C2)cn1-c1ccc(Cl)cc1 [Compound 114, 4-(1-(4-chlorophenyl)-2-(2-ethoxypyridin-3-yl)-1H-imidazol-4-yl)-2,2,6,6-tetramethyltetrahydro-2H-pyran-4-ol] | IC50 (human N-type Ca channel [2]; [7]): > 1000 nM
24 | 822 | 1940 | – | – | COc1ncccc1-c1nc(C2CC(C)(C)OC(C)(C)C2)cn1-c1ccc(F)c(F)c1 [Compound 40, 3-(1-(3,4-difluorophenyl)-4-(2,2,6,6-tetramethyltetrahydro-2H-pyran-4-yl)-1H-imidazol-2-yl)-2-methoxypyridine] | inhibition at 10 µM (human N-type Ca channel [2]): 52%
25 | 263 | – | – | 966 | COc1cccnc1-c1nc(C2CC(C)(C)OC(C)(C)C2)cn1-c1ccc(Cl)c(F)c1 [Compound 19, 2-(1-(4-chloro-3-fluorophenyl)-4-(2,2,6,6-tetramethyltetrahydro-2H-pyran-4-yl)-1H-imidazol-2-yl)-3-methoxypyridine] | inhibition at 1 µM (human N-type Ca channel [2]; read-out: Qpatch Pulse=15 (percent inhibition)): 28%
26 | 108 | – | – | 694 | COc1cnccc1-c1nc(C2CC(C)(C)OC(C)(C)C2)cn1-c1ccc(F)c(Cl)c1 [Compound 18, 4-(1-(3-chloro-4-fluorophenyl)-4-(2,2,6,6-tetramethyltetrahydro-2H-pyran-4-yl)-1H-imidazol-2-yl)-3-methoxypyridine] | IC50 (human N-type Ca channel [2]; [7]): 376 nM
